Experiments:
Pyricularia oryzae = test: microbe, parasite or virus in culture; assay type: cell-based; conditions: 168 h, read-out: control compared to the untreated check
Alternaria solani [1] = test: Alternaria solani (early blight of tomato/potato) mycelial radial growth on potato dextrose agar; assay type: cell-based; conditions: 168 h, 25° C., seven days, read-out: control compared to the untreated check
Method in brief: (§1)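 Compounds in 0.3% DMSO were mixed into potato dextrose agar, and each plate was seeded with a 5 mm mycelial disc from an actively growing culture. Plates were incubated at 25° C and 60% relative humidity for seven days. Radial growth was compared with untreated control.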

Colletotrichum capsici = Colletotrichum capsici (anthracnose) mycelial radial growth on potato dextrose agar; assay type: cell-based; conditions: Colletotrichum truncatum, 168 h, 25° C., seven days, read-out: control compared to the untreated check
Method in brief: as §1

Corynespora cassiicola [2] = test: Corynespora cassiicola (leaf spot of tomato) mycelial radial growth on potato dextrose agar; assay type: cell-based; conditions: 168 h, 25° C., seven days, read-out: control compared to the untreated check
Protocol: The compounds were dissolved in 0.3% dimethyl sulfoxide and then added to potato dextrose agar medium just prior to dispensing it into petri dishes. 5 mL medium, with the compound in the desired concentration, was dispensed into 60 mm sterile petri-plates. After solidification, each plate was seeded with a 5 mm size mycelial disc taken from the periphery of an actively growing virulent culture plate. The plates were incubated in growth chambers at 25° C. temperature and 70% relative humidity for seven days and the radial growth was measured and compared to the one of the untreated control.

Botrytis cinerea [3] = test: Botrytis cinerea test on tomato, preventive, greenhouse; assay type: in vivo; conditions: preventive spray on bean/chili plants (heading: tomato), inoculated one day after treatment, read-out: control (efficacy, disease severity) compared to the untreated check
Alternaria solani [4] = test: Alternaria solani test in tomato, preventive, greenhouse; assay type: in vivo; conditions: preventive spray on tomato, inoculated one day after treatment, read-out: control (efficacy, disease severity) compared to the untreated check
Protocol: (§2) The respective compound was dissolved in 2% dimethyl sulfoxide/acetone and then mixed with water containing an emulsifier to the calibrated spray volume of 30 mL. Each spray solution was poured into a spray bottle for further application.
(§3) To test the preventive activity of a compound, healthy young tomato plants, raised in the greenhouse, were sprayed with the active compound preparation at the stated application rate inside the spray cabinets using hollow cone nozzles. One day after treatment, the plants were inoculated with a spore suspension containing 0.24×10^6 Alternaria solani inoculum. The inoculated plants were then kept in a greenhouse chamber at 22-24° C. temperature and 90-95% relative humidity for disease expression.
(§4) A visual assessment of the compound's performance was carried out by rating the disease severity (0 100% scale) on treated plants 3, 7, 10 and 15 days after application. Efficacy (% control) of the compound was calculated by comparing the disease rating in the treatment with the one of the untreated control. The treated plants were also assessed for plant damage by recording symptoms like necrosis, chlorosis and stunting.

Phakopsora pachyrhizi = Phakopsora pachyrhizi test on soybean, preventive, greenhouse; assay type: in vivo; conditions: preventive spray on soybean, inoculated one day after treatment, read-out: control (efficacy, disease severity) compared to the untreated check
Method in brief: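 Preventive protocol: plants inoculated with a 2×10^5 P. pachyrhizi conidial suspension one day after spray application at the stated rate, then incubated at 22-24 °C and 80-90% RH. Compound was applied from 2% DMSO/acetone diluted in emulsified water.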

Parastagonospora nodorum = Parastagonospora nodorum (PARANO) spore growth inhibition in liquid medium, 96-well microtiter plate, OD 600; assay type: cell-based; conditions: spore suspension in PDB liquid medium, 18° C., 5-6 days, OD at 600, read-out: control compared to the untreated check
Method in brief: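 Read-out is percent growth inhibition from OD at 600 after 5-6 days at 18° C. Compounds, dissolved in DMSO, were diluted in potato dextrose broth and combined in equal volume with a 10^5 spores/ml suspension of PARANO.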

Botrytis cinerea [5] = test: Botrytis cinerea liq. (BOTRCI) spore growth inhibition in liquid medium, 96-well microtiter plate, OD 405 nm; assay type: cell-based; conditions: spore suspension in YBA liquid medium, 22° C., 5-6 days, OD at 405 nm, read-out: control compared to the untreated check
Method in brief: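 Spore suspension of B. cinerea (10^4 spores/ml) in YBA liquid medium mixed 1:1 with compound diluted from DMSO. Incubated at 22° C. for 5-6 days. Growth read as OD 405 nm; percent inhibition derived from treatment, untreated-control and blank readings.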

Venturia Inequalis = test: Venturia inequalis (VENTIN) spore growth inhibition in liquid medium, 96-well microtiter plate, OD 600; assay type: cell-based; conditions: spore suspension in PDB liquid medium, 18° C., 15-18 days, OD at 600, read-out: control compared to the untreated check
Method in brief: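 Venturia inequalis spores (10^5 spores/ml suspension) were grown in potato dextrose broth with test compounds dissolved in DMSO, mixing equal volumes of compound solution and spore suspension. Plates were incubated at 18 °C for 15–18 days. Growth was read as OD600 and converted to percent inhibition.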

Fusarium culmorum = Fusarium culmorum test on wheat, preventive, greenhouse; assay type: in vivo; conditions: preventive spray on wheat, inoculated one day after treatment, read-out: control (efficacy, disease severity) compared to the untreated check
Protocol: The respective compound was dissolved in 2% dimethyl sulfoxide/acetone and then mixed with water containing an emulsifier to a calibrated spray volume of 30 mL. Each spray solution was poured into a spray bottle for further application.
as §3, with “wheat” for “tomato”, “after the” for “after”, “2×10^6 Fusarium culmorum” for “0.24×10^6 Alternaria solani”, “24°” for “22-24°”, “80-90%” for “90-95%”
as §4

Corynespora cassiicola [6] = test: Corynespora cassiicola test on tomato, preventive, greenhouse; assay type: in vivo; conditions: 500 ppm; preventive spray on tomato, inoculated one day after treatment
Protocol: as §2
as §3, with “2.6×10^6 Corynespora cassiicola” for “0.24×10^6 Alternaria solani”
as §4

Phytophthora infestans [7] = test: whole plant or invertebrate; assay type: in vivo, Phytophthora infestans on tomato; conditions: in Solanum lycopersicum, read-out: control (efficacy, disease severity) compared to the untreated check
Botrytis cinerea [8] = test: Botrytis cinerea (gray mold) mycelial radial growth on potato dextrose agar; assay type: cell-based; conditions: 168 h, 22° C., seven days, read-out: control compared to the untreated check
Method in brief: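 Compounds in 0.3% DMSO were mixed into potato dextrose agar, and plates were seeded with 5 mm mycelial discs from actively growing virulent culture. After seven days at 22 °C and 90% relative humidity, radial growth was measured relative to untreated control.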

Phytophthora infestans [9] = test: microbe, parasite or virus in culture; assay type: cell-based; conditions: 168 h, read-out: control compared to the untreated check

CC(C)CC(C)(Cc1ccccc1)NC(=O)c1cnc2c(ccn2C)c1 (stereo not shown) [Compound 2, N-(2,4-dimethyl-1-phenylpentan-2-yl)-1-methyl-1H-pyrrolo[2,3-b]pyridine-5-carboxamide]
≥ 70%: inhibition of growth at 300 ppm (Pyricularia oryzae) | inhibition of growth at 300 ppm (Alternaria solani [1]) | inhibition of growth at 300 ppm (Colletotrichum capsici) | inhibition of growth at 300 ppm (Corynespora cassiicola [2]) | pest or weed control at 500 ppm (Botrytis cinerea [3]) | pest or weed control at 500 ppm (Alternaria solani [4]) | pest or weed control at 500 ppm (Phakopsora pachyrhizi)

CCC(C)(Cc1ccccc1)NC(=O)c1cnc2c(ccn2C)c1 (stereo not shown) [Compound 6, 1-methyl-N-(2-methyl-1-phenylbutan-2-yl)-1H-pyrrolo[2,3-b] pyridine-5-carboxamide]
≥ 70%: inhibition of growth at 300 ppm (Alternaria solani [1]) | inhibition of growth at 300 ppm (Colletotrichum capsici) | inhibition of growth at 300 ppm (Corynespora cassiicola [2]) | inhibition of growth at 300 ppm (Parastagonospora nodorum) | inhibition of growth at 300 ppm (Botrytis cinerea [5])

CC(c1ccccc1F)C(C)(C)NC(=O)c1cnc2c(c1)c(Cl)cn2C (stereo not shown) [Compound 64, 3-chloro-N-(3-(2-fluorophenyl)-2-methylbutan-2-yl)-1-methyl-1H-pyrrolo[2,3-b]pyridine-5-carboxamide]
≥ 70%: inhibition of growth at 300 ppm (Pyricularia oryzae) | inhibition of growth at 300 ppm (Venturia Inequalis) | pest or weed control at 500 ppm (Fusarium culmorum) | control (efficacy, disease severity) compared to the untreated check (Corynespora cassiicola [6]) | pest or weed control at 500 ppm (Phytophthora infestans [7]) | pest or weed control at 500 ppm (Phakopsora pachyrhizi)

CC(C)(NC(=O)c1cnc2ccsc2c1)C(F)(F)F [Compound 109, N-(1,1,1-trifluoro-2-methylpropan-2-yl)thieno[3,2-b] pyridine-6-carboxamide]
≥ 70%: inhibition of growth at 300 ppm (Pyricularia oryzae) | inhibition of growth at 300 ppm (Botrytis cinerea [8]) | inhibition of growth at 300 ppm (Alternaria solani [1]) | inhibition of growth at 300 ppm (Corynespora cassiicola [2]) | inhibition of growth at 300 ppm (Phytophthora infestans [9]) | inhibition of growth at 300 ppm (Parastagonospora nodorum) | inhibition of growth at 300 ppm (Botrytis cinerea [5])

C=C(C)CC(C)(COc1ccc(F)cc1)NC(=O)c1cnc2c(ccn2C)c1 (stereo not shown) [Compound 121, N-(1-(4-fluorophenoxy)-2,4-dimethylpent-4-en-2-yl)-1-methyl-1H-pyrrolo[2,3-b]pyridine-5-carboxamide]
≥ 70%: inhibition of growth at 300 ppm (Colletotrichum capsici) | inhibition of growth at 300 ppm (Corynespora cassiicola [2]) | pest or weed control at 500 ppm (Fusarium culmorum)

C=C(C)CC(C)(Cc1ccccc1F)NC(=O)c1cnc2c(ccn2C)c1 (stereo not shown) [Compound 127, N-(1-(2-fluorophenyl)-2,4-dimethylpent-4-en-2-yl)-1-methyl-1H-pyrrolo[2,3-b]pyridine-5-carboxamide]
≥ 70%: inhibition of growth at 300 ppm (Colletotrichum capsici) | inhibition of growth at 300 ppm (Corynespora cassiicola [2]) | inhibition of growth at 300 ppm (Venturia Inequalis) | pest or weed control at 500 ppm (Alternaria solani [4]) | pest or weed control at 500 ppm (Phakopsora pachyrhizi)

C=C(C)CC(C)(Cc1ccccc1F)NC(=O)c1cnc2ccsc2c1 (stereo not shown) [Compound 129, N-(1-(2-fluorophenyl)-2,4-dimethylpent-4-en-2-yl)thieno[3,2-b] pyridine-6-carboxamide]
≥ 70%: inhibition of growth at 300 ppm (Alternaria solani [1]) | inhibition of growth at 300 ppm (Colletotrichum capsici) | inhibition of growth at 300 ppm (Corynespora cassiicola [2]) | pest or weed control at 500 ppm (Phakopsora pachyrhizi)
